Measurements as given in ChEMBL document CHEMBL1909046, “DrugMatrix in vitro pharmacology data”.

Legend:
Melanocortin receptor 4 = Melanocortin receptor 4 (Homo sapiens, UniProt P32245); assay type: cell membranes, Membrane; settings: hek293; note: in other assays of this panel Not Active means under 50% inhibition at 10 µM
Histamine H2 receptor = Histamine H2 receptor (Homo sapiens, UniProt P25021); assay type: cell membranes, CHO-K1, Membrane; settings: cho-k1; note: in other assays of this panel Not Active means under 50% inhibition at 10 µM
Mu-type opioid receptor = Mu-type opioid receptor (Homo sapiens, UniProt P35372); experiment: DRUGMATRIX: Opiate mu (OP3, MOP) radioligand binding (ligand: [3H] Diprenorphine); assay type: cell membranes, CHO-K1, Membrane; settings: cho-k1; Not Active = under 50% inhibition at 10 µM
[1] = target: T1, Muscarinic acetylcholine receptor M4 (Homo sapiens, UniProt P08173); assay type: cell membranes, CHO-K1, Membrane; note: in other assays of this panel Not Active means under 50% inhibition at 10 µM
T1 sequence (P08173 whole entry): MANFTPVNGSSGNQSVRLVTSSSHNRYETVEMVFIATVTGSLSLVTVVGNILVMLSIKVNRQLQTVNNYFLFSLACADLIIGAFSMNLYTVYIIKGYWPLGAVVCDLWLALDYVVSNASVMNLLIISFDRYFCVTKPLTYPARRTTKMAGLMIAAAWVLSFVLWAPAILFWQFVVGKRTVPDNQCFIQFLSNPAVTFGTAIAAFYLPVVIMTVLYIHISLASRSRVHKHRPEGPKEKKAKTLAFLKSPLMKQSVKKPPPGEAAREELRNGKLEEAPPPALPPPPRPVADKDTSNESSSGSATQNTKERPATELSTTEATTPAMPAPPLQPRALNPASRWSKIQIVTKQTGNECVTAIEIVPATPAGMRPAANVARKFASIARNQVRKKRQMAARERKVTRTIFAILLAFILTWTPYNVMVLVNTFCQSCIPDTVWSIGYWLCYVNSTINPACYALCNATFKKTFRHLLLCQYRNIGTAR

[2] = target: Protein kinase C alpha type (Homo sapiens, UniProt P17252); assay type: cell-based; settings: sf9;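 note: inhibition of PKCalpha kinase activity measured in an enzyme assay with histone as the phosphorylation substrate; in other assays of this panel Not Active means under 50% inhibition at 10 µM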
[3] = DRUGMATRIX: Glutamate, AMPA radioligand binding (ligand: [3H] AMPA); assay type: cell membranes, Rattus norvegicus, Wistar, Cerebral cortex, Membrane; settings: Not Active = under 50% inhibition at 10 µM
[4] = target: Mitogen-activated protein kinase 3 (Homo sapiens, UniProt P27361); experiment: DRUGMATRIX: Protein Serine/Threonine Kinase, ERK1 enzyme inhibition (substrate: Myelin Basic Protein); parameters: species or system Escherichia coli; settings: Not Active = under 50% inhibition at 10 µM
Chain of Mitogen-activated protein kinase 3 (P27361 whole entry): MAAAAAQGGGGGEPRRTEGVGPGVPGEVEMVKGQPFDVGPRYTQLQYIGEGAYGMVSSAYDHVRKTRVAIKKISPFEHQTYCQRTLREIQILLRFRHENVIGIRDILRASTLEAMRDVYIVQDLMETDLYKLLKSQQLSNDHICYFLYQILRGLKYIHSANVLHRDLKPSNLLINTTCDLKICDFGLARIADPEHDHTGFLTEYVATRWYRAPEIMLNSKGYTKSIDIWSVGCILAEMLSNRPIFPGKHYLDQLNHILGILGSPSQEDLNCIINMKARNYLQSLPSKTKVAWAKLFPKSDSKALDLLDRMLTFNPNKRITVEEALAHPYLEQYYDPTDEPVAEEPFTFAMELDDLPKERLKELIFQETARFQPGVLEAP

Chain of Melanocortin receptor 4 (P32245 whole entry): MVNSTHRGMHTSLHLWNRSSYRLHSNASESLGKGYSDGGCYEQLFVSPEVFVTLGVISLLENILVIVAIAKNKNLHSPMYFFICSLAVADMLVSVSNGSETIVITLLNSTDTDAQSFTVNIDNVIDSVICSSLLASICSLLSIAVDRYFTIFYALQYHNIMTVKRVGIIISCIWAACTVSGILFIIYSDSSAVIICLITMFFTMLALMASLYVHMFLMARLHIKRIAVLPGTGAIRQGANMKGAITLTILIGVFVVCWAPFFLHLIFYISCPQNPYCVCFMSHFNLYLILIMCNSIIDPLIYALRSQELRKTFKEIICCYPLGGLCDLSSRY
Chain of Mu-type opioid receptor (P35372 whole entry): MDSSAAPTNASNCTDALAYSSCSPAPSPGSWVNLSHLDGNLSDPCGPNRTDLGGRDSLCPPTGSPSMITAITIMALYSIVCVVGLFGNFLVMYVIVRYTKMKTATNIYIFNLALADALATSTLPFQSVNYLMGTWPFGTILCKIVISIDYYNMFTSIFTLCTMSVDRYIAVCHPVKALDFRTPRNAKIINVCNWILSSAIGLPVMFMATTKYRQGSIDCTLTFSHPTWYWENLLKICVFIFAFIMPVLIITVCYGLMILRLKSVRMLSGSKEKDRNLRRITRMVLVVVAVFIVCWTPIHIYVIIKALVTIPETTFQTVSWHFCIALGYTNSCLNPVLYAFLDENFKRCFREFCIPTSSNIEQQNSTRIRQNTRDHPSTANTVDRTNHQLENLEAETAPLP
Chain of Histamine H2 receptor (P25021 whole entry): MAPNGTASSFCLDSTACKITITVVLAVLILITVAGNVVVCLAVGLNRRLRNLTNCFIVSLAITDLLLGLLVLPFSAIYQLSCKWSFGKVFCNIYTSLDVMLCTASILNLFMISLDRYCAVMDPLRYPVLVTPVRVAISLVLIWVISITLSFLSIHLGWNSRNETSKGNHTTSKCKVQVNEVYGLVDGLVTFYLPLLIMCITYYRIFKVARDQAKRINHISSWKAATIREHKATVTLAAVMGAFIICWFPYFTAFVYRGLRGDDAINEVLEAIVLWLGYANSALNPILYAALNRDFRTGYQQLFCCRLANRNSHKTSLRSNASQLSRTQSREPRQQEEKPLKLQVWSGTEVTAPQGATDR

| Compound | IC50 (Melanocortin receptor 4) | IC50 (Histamine H2 receptor) | IC50 (Mu-type opioid receptor) | IC50 ([1]; cho-k1) | IC50 [2] | IC50 [3] | Ki [3] | IC50 [4] | IC50 ([1]; read-out: IC50) | Ki ([1]; read-out: Ki) |
| --- | --- | --- | --- | --- | --- | --- | --- | --- | --- | --- |
| Cc1cc(=O)n(-c2ccccc2)n1C [ANTIPYRINE] | Not Active | Not Active | Not Active | Not Active | Not Active | Not Active | Not Active | Not Active |  |  |
| COc1cccc2c1C(=O)c1c(O)c3c(c(O)c1C2=O)C[C@@](O)(C(=O)CO)C[C@@H]3O[C@H]1C[C@H](N)[C@@H](O)[C@H](C)O1 [EPIRUBICIN] | Not Active | Not Active | Not Active | Not Active | Not Active | Not Active | Not Active | Not Active |  |  |
| C[C@](O)(CS(=O)(=O)c1ccc(F)cc1)C(=O)Nc1ccc(C#N)c(C(F)(F)F)c1 [(R)-BICALUTAMIDE] | Not Active | Not Active | Not Active | Not Active | Not Active | Not Active | Not Active | Not Active |  |  |
| COc1ccc2c(c1)[C@]13CCCC[C@@H]1[C@H](C2)N(C)CC3 [DEXTROMETHORPHAN] | Not Active | Not Active | Not Active | Not Active | Not Active | Not Active | Not Active | Not Active |  |  |
| CCN[C@@H]1C[C@H](N)[C@@H](O[C@H]2OC(CN)=CC[C@H]2N)[C@H](O)[C@H]1O[C@H]1OC[C@](C)(O)[C@H](NC)[C@H]1O [NETILMICIN] | Not Active | Not Active | Not Active | Not Active | Not Active | Not Active | Not Active | Not Active |  |  |
| CN(C)/N=N/c1[nH]cnc1C(N)=O [DACARBAZINE] | Not Active | Not Active | Not Active | Not Active | Not Active | Not Active | Not Active | Not Active |  |  |
| O=NN(CCCl)C(=O)NCCCl [CARMUSTINE] | Not Active | Not Active | Not Active | Not Active | Not Active | Not Active | Not Active | Not Active |  |  |
| Oc1ccc(OCc2ccccc2)cc1 [MONOBENZONE] | Not Active | Not Active | Not Active | Not Active | Not Active | Not Active | Not Active | Not Active |  |  |
| O=C1CC2(CCCC2)CC(=O)N1CCCCN1CCN(c2ncccn2)CC1 [BUSPIRONE] | Not Active | Not Active | Not Active | Not Active | Not Active | Not Active | Not Active | Not Active |  |  |
| Nc1ccn([C@@H]2CS[C@H](CO)O2)c(=O)n1 [LAMIVUDINE] | Not Active | Not Active | Not Active | Not Active | Not Active | Not Active | Not Active | Not Active |  |  |
| COc1ccc2c(c1)c(CC(=O)O)c(C)n2C(=O)c1ccc(Cl)cc1 [INDOMETHACIN] | Not Active | Not Active | Not Active | Not Active | Not Active | Not Active | Not Active | Not Active |  |  |
| CC(C)[C@H]1CC[C@H](C(=O)N[C@H](Cc2ccccc2)C(=O)O)CC1 [NATEGLINIDE] | Not Active | Not Active | Not Active | Not Active | Not Active | Not Active | Not Active | Not Active |  |  |
| CCCC(=O)Nc1ccc(OCC(O)CNC(C)C)c(C(C)=O)c1 (stereo unspecified) [ACEBUTOLOL] | Not Active | Not Active | Not Active | Not Active | Not Active | Not Active | Not Active | Not Active |  |  |
| C[C@]12CC[C@@H]3c4ccc(OC(=O)c5ccccc5)cc4CC[C@H]3[C@@H]1CC[C@@H]2O [ESTRADIOL BENZOATE] | Not Active | Not Active | Not Active | Not Active | Not Active | Not Active | Not Active | Not Active |  |  |
| CC1(C)O[C@@H]2C[C@H]3[C@@H]4C[C@H](F)C5=CC(=O)C=C[C@]5(C)[C@H]4[C@@H](O)C[C@]3(C)[C@]2(C(=O)CO)O1 [FLUNISOLIDE] | Not Active | Not Active | Not Active | Not Active | Not Active | Not Active | Not Active | Not Active |  |  |
| CC1=C(C(=O)O)N2C(=O)[C@@H](NC(=O)[C@H](N)c3ccccc3)[C@H]2SC1 [CEPHALEXIN ANHYDROUS] | Not Active | Not Active | Not Active | Not Active | Not Active | Not Active | Not Active | Not Active |  |  |
| COC(=O)C1=C(C)NC(C)=C(C(=O)OCC(C)C)C1c1ccccc1[N+](=O)[O-] (stereo unspecified) [NISOLDIPINE] | Not Active | Not Active | Not Active | Not Active | Not Active | Not Active | Not Active | Not Active |  |  |
| CC(=O)Nc1ccc(O)cc1 [ACETAMINOPHEN] | Not Active | Not Active | Not Active | Not Active | Not Active | Not Active | Not Active | Not Active |  |  |
| CCc1c2c(nc3ccc(OC(=O)N4CCC(N5CCCCC5)CC4)cc13)-c1cc3c(c(=O)n1C2)COC(=O)[C@]3(O)CC [IRINOTECAN] | Not Active | Not Active | Not Active |  | Not Active | Not Active | Not Active | Not Active | 1560 nM | 217 nM |
| C[C@]12CC[C@@H]3c4ccc(O)cc4CC[C@H]3[C@@H]1CC[C@@H]2O [ESTRADIOL] | Not Active | Not Active | Not Active | Not Active | Not Active | Not Active | Not Active | Not Active |  |  |
| C#C[C@]1(OC(C)=O)CC[C@H]2[C@@H]3CCC4=CC(=O)CC[C@@H]4[C@H]3CC[C@@]21C [NORETHINDRONE ACETATE] | Not Active | Not Active | Not Active | Not Active | Not Active | Not Active | Not Active | Not Active |  |  |
| N=C(Nc1ccccc1)Nc1ccccc1 | Not Active | Not Active | Not Active | Not Active | Not Active | Not Active | Not Active | Not Active |  |  |
| ClC(Cl)Cl [CHLOROFORM] | Not Active | Not Active | Not Active | Not Active | Not Active | Not Active | Not Active | Not Active |  |  |
| N=C(N)NC(=O)c1nc(Cl)c(N)nc1N [AMILORIDE] | Not Active | Not Active | Not Active | Not Active | Not Active | Not Active | Not Active | Not Active |  |  |
| CCN1CC(CCN2CCOCC2)C(c2ccccc2)(c2ccccc2)C1=O (stereo unspecified) [DOXAPRAM] | Not Active | Not Active | Not Active | Not Active | Not Active | Not Active | Not Active | Not Active |  |  |
| Cc1ccc(S(=O)(=O)NC(=O)NN2CC3CCCC3C2)cc1 (stereo unspecified) [GLICLAZIDE] | Not Active | Not Active | Not Active | Not Active | Not Active | Not Active | Not Active | Not Active |  |  |
| COc1cccc2c1C(=O)c1c(O)c3c(c(O)c1C2=O)C[C@@](O)(C(=O)CO)C[C@@H]3O[C@H]1C[C@H](N)[C@H](O)[C@H](C)O1 [DOXORUBICIN] | Not Active | Not Active | Not Active | Not Active | Not Active | Not Active | Not Active | Not Active |  |  |
| Cn1c(=O)c2c(ncn2CC2OCCO2)n(C)c1=O [DOXOFYLLINE] | Not Active | Not Active | Not Active | Not Active | Not Active | Not Active | Not Active | Not Active |  |  |
| Cc1cc2cc3c(C)cc(=O)oc3c(C)c2o1 [TRIOXSALEN] | Not Active | Not Active | Not Active | Not Active | Not Active | Not Active | Not Active | Not Active |  |  |
| Cc1ncc([N+](=O)[O-])n1CCO [METRONIDAZOLE] | Not Active | Not Active | Not Active | Not Active | Not Active | Not Active | Not Active | Not Active |  |  |
